BindingDB's records for doi:10.1016/j.bmc.2004.12.045 (Cnrs, 2005)
Where a name gives a salt, the structure may show the parent alone.

target: Glycogen synthase kinase-3 beta (Sus scrofa); assay: Kinase activities were assayed in buffers containing substrate, enzyme, and inhibitor at 30 °C in the presence of 15 uM ATP/ [gamma-32P] ATP. 32P incorporation was measured with a scintillation counter. The IC50 is the inhibitor concentration, which inhibits 50% of kinase activity that catalyzes the transfer of the terminal phosphate from 32P l; conditions: pH 7.5

Compound	IC50
Cc1cc(C)c(S(=O)(=O)NCc2nc3c(c4c2[nH]c2ccccc24)CNC3=O)c(C)c1 [2,4,6-Trimethyl-N-(3-oxo-1,2,3,6-tetrahydro-2,4,6-triaza-cyclopenta[c]fluoren-5-ylmethyl)-benzene-sulfonamide]	1.5 µM
Cc1c2c(c(C#N)c3c4ccccc4n(COCC[Si](C)(C)C)c13)C(=O)N(C)C2=O [2,4-dimethyl-1,3-dioxo-5-{[2-(trimethylsilyl)ethoxy]methyl}-1H,2H,3H,5H-pyrrolo[3,4-b]carbazole-10-carbonitrile]	> 10 µM
Cc1nc2c(c3c1[nH]c1ccccc13)CN(CCN(C)C)C2=O [2-(2-Dimethylaminoethyl)-5-methyl-1,2-di-hydro-6H-2,4,6-triaza-cyclopenta[c]fluoren-3-one]	> 10 µM
CN(C)CC(=O)NCc1nc2c(c3c1[nH]c1ccccc13)CNC2=O [2-(dimethylamino)-N-({5-oxo-4,7,10-triazatetracyclo[7.7.0.0^{2,6}.0^{11,16}]hexadeca-1(9),2(6),7,11(16),12,14-hexaen-8-yl}methyl)acetamide]	8 µM
O=C1c2nc(-c3ccccc3)c3[nH]c4ccccc4c3c2CN1Cc1ccccc1 [2-Benzyl-5-phenyl-1,2-dihydro-6H-2,4,6-triazacyclopenta[c]fluoren-3-one]	> 10 µM
Cc1cc2c(c3c4ccccc4n(COCC[Si](C)(C)C)c13)C(=O)N(CCN(C)C)C2=O [2-[2-(dimethylamino)ethyl]-5-methyl-6-{[2-(trimethylsilyl)ethoxy]methyl}pyrrolo[3,4-c]carbazole-1,3(2H,6H)-dione]	> 10 µM
Cc1cc2c(c3c4ccccc4n(COCC[Si](C)(C)C)c13)C(=N)N(CCN(C)C)C2=O [4-[2-(dimethylamino)ethyl]-3-imino-8-methyl-10-{[2-(trimethylsilyl)ethoxy]methyl}-4,10-diazatetracyclo[7.7.0.0^{2,6}.0^{11,16}]hexadeca-1(9),2(6),7,11(16),12,14-hexaen-5-one]	> 10 µM
Cc1nc2c(c3c1[nH]c1ccccc13)CNC2=O [5-Methyl-1,2-dihydro-6H-2,4,6-triaza-cyclopenta[c]fluoren-3-one]	> 10 µM
Cc1cc2c(c3c4ccccc4n(COCC[Si](C)(C)C)c13)CNC2=O [5-Methyl-6-(2-trimethylsilanyl-ethoxymethyl)-1,2-dihydro-6H-pyrrolo[3,4-c]carbazol-3-one]	> 10 µM
NCc1nc2c(c3c1[nH]c1ccccc13)CNC2=O [8-(aminomethyl)-4,7,10-triazatetracyclo[7.7.0.0^{2,6}.0^{11,16}]hexadeca-1(9),2(6),7,11(16),12,14-hexaen-5-one hydrochloride]	5.5 µM
Cc1c2c(c(C#N)c3c4cc(Cl)ccc4n(COCC[Si](C)(C)C)c13)C(=O)N(C)C2=O [8-chloro-2,4-dimethyl-1,3-dioxo-5-{[2-(trimethylsilyl)ethoxy]methyl}-1H,2H,3H,5H-pyrrolo[3,4-b]carbazole-10-carbonitrile]	> 10 µM
Cc1cc2c(c3c1[nH]c1ccccc13)CNC2=O [8-methyl-4,10-diazatetracyclo[7.7.0.0^{2,6}.0^{11,16}]hexadeca-1(9),2(6),7,11(16),12,14-hexaen-5-one]	> 10 µM
Cc1c2c(c(CN)c3c4ccccc4n(COCC[Si](C)(C)C)c13)C(=O)N(C)C2=O [10-(aminomethyl)-2,4-dimethyl-5-{[2-(trimethylsilyl)ethoxy]methyl}-1H,2H,3H,5H-pyrrolo[3,4-b]carbazole-1,3-dione]	> 10 µM
Cc1c2c(c(CN)c3c4ccccc4n(COCC[Si](C)(C)C)c13)C(=O)N(Cc1ccccc1)C2=O [10-(aminomethyl)-2-benzyl-4-methyl-5-{[2-(trimethylsilyl)ethoxy]methyl}-1H,2H,3H,5H-pyrrolo[3,4-b]carbazole-1,3-dione]	> 10 µM
Cc1nc2c(c3c4ccccc4n(CCN(C)C)c13)CNC2=O [10-[2-(dimethylamino)ethyl]-8-methyl-4,7,10-triazatetracyclo[7.7.0.0^{2,6}.0^{11,16}]hexadeca-1(9),2(6),7,11(16),12,14-hexaen-5-one]	7 µM
Cc1c2c(c(CNC(=O)CN(C)C)c3c4ccccc4n(COCC[Si](C)(C)C)c13)C(=O)N(C)C2=O [N-[(2,4-dimethyl-1,3-dioxo-5-{[2-(trimethylsilyl)ethoxy]methyl}-1H,2H,3H,5H-pyrrolo[3,4-b]carbazol-10-yl)methyl]-2-(dimethylamino)acetamide]	> 10 µM
Cc1c2c(c(CNC(=O)CCN(C)C)c3c4ccccc4n(COCC[Si](C)(C)C)c13)C(=O)N(C)C2=O [N-[(2,4-dimethyl-1,3-dioxo-5-{[2-(trimethylsilyl)ethoxy]methyl}-1H,2H,3H,5H-pyrrolo[3,4-b]carbazol-10-yl)methyl]-3-(dimethylamino)propanamide]	> 10 µM
Cc1c2c(c(CNC(=O)CN(C)C)c3c4ccccc4n(COCC[Si](C)(C)C)c13)C(=O)N(Cc1ccccc1)C2=O [N-[(2-benzyl-4-methyl-1,3-dioxo-5-{[2-(trimethylsilyl)ethoxy]methyl}-1H,2H,3H,5H-pyrrolo[3,4-b]carbazol-10-yl)methyl]-2-(dimethylamino)acetamide]	> 10 µM
Cc1c2c(c(CNC(=O)CCN(C)C)c3c4ccccc4n(COCC[Si](C)(C)C)c13)C(=O)N(Cc1ccccc1)C2=O [N-[(2-benzyl-4-methyl-1,3-dioxo-5-{[2-(trimethylsilyl)ethoxy]methyl}-1H,2H,3H,5H-pyrrolo[3,4-b]carbazol-10-yl)methyl]-3-(dimethylamino)propanamide]	> 10 µM
Cc1c2c(c(CNC(=O)CN(C)C)c3c1[nH]c1ccccc13)C(=O)N(C)C2=O [{[({2,4-dimethyl-1,3-dioxo-1H,2H,3H,5H-pyrrolo[3,4-b]carbazol-10-yl}methyl)carbamoyl]methyl}dimethylazanium chloride]	> 10 µM
Cc1c2c(c(CNC(=O)CN(C)C)c3c1[nH]c1ccccc13)C(=O)N(Cc1ccccc1)C2=O [{[({2-benzyl-4-methyl-1,3-dioxo-1H,2H,3H,5H-pyrrolo[3,4-b]carbazol-10-yl}methyl)carbamoyl]methyl}dimethylazanium chloride]	> 10 µM
